Data from the supplement of paper PMC10307832.

What was measured:
Test in all cases: relative viability (nuclei count vs DMSO), 5 days (fraction); higher = more cells survive
[1] = compound: C/C(=N\NC(=S)N1CCC1)/C2=CC=CC=N2
Method in brief: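 Lung cancer cell lines were seeded into 1536-well plates, kept overnight at 37 °C and pinned with five library-drug doses (not always all listed) spaced by √10. After 5 days, nuclei were Hoechst-stained, imaged at 4× and counted with MetaXpress. Viability is treated-well nuclei over vehicle-well nuclei, taken as a median across plates. Plates needed control CV below 25% and at least one doubling.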

[2] = compound: C/C(=N\NC(=S)N1CCC1)/C2=CC=CC=N2 + CCNC(=O)c1noc(-c2cc(C(C)C)c(O)cc2O)c1-c1ccc(CN2CCOCC2)cc1 [Luminespib] (partner 0.01 µM)
Method in brief: (§1)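 Cells from lung cancer lines were seeded into 1536-well plates and, one day later, dosed by pin tool. Treatments were either a single drug or a fixed dose of an anchor drug with five library-drug doses (not always all listed) in √10 steps. After 5 days, nuclei were stained in a one-step fixation (final 0.05% Triton X-100, 1% formaldehyde, 1 ug/ml Hoechst) and counted on 4× images, and relative viability is the treated-to-vehicle nuclei ratio, as the median of duplicate plates.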

[3] = compound: C/C(=N\NC(=S)N1CCC1)/C2=CC=CC=N2 + COc1cc2c(Oc3ccc(NC(=O)C4(C(=O)Nc5ccc(F)cc5)CC4)cc3F)ccnc2cc1OCCCN1CCOCC1 [Foretinib] (partner 0.25 µM)
Method in brief: as §1

[4] = compound: C/C(=N\NC(=S)N1CCC1)/C2=CC=CC=N2 + COc1cccc2cc(-c3nc([C@H]4CC[C@H](C(=O)O)CC4)n4ncnc(N)c34)[nH]c12 [OSI-027] (partner 0.5 µM)
Method in brief: as §1

[5] = compound: C/C(=N\NC(=S)N1CCC1)/C2=CC=CC=N2 + Cc1cc(Nc2cc(N3CCN(C)CC3)nc(Sc3ccc(NC(=O)C4CC4)cc3)n2)n[nH]1 [Tozasertib] (partner 0.1 µM)
Method in brief: as §1

[6] = compound: C/C(=N\NC(=S)N1CCC1)/C2=CC=CC=N2 + Cc1nc(Nc2ncc(C(=O)Nc3c(C)cccc3Cl)s2)cc(N2CCN(CCO)CC2)n1 [Dasatinib] (partner 0.075 µM)
Method in brief: as §1

[7] = compound: C/C(=N\NC(=S)N1CCC1)/C2=CC=CC=N2 + N=C(N)NC(=N)NCCc1ccccc1 [Phenformin] (partner 250 µM)
Method in brief: as §1

[8] = compound: C/C(=N\NC(=S)N1CCC1)/C2=CC=CC=N2 + CC(=O)Nc1cccc(-n2c(=O)n(C3CC3)c(=O)c3c(Nc4ccc(I)cc4F)n(C)c(=O)c(C)c32)c1 [Trametinib] (partner 0.02 µM)
Method in brief: as §1

[9] = compound: C/C(=N\NC(=S)N1CCC1)/C2=CC=CC=N2 + CC(=O)c1c(C)c2cnc(Nc3ccc(N4CCNCC4)cn3)nc2n(C2CCCC2)c1=O [Palbociclib] (partner 0.5 µM)
Method in brief: as §1

[10] = compound: C/C(=N\NC(=S)N1CCC1)/C2=CC=CC=N2 + NC(=O)Nc1cc(-c2cccc(F)c2)sc1C(=O)N[C@H]1CCCNC1 [AZD7762] (partner 0.2 µM)
Method in brief: as §1

[11] = compound: C/C(=N\NC(=S)N1CCC1)/C2=CC=CC=N2 + Nc1nc2[nH]cc(CCc3ccc(C(=O)N[C@@H](CCC(=O)O)C(=O)O)cc3)c2c(=O)[nH]1 [Pemetrexed] (partner 0.2 µM)
Method in brief: as §1

[12] = compound: C/C(=N\NC(=S)N1CCC1)/C2=CC=CC=N2 + Nc1ncn([C@H]2C[C@H](O)[C@@H](CO)O2)c(=O)n1 [Decitabine] (partner 2 µM)
Method in brief: as §1

[13] = compound: C/C(=N\NC(=S)N1CCC1)/C2=CC=CC=N2 + O=C(CCCCCCC(=O)Nc1ccccc1)NO [Vorinostat] (partner 1 µM)
Method in brief: as §1

[14] = compound: C/C(=N\NC(=S)N1CCC1)/C2=CC=CC=N2 + O=C(c1cc(Cc2n[nH]c(=O)c3ccccc23)ccc1F)N1CCN(C(=O)C2CC2)CC1 [Olaparib] (partner 8 µM)
Method in brief: as §1

**Q.** For NCI-H1623, which relative viability ([1]; 0.05 µM) is on record?
**A.** Its relative viability is 0.395.

**Q.** What about the relative viability ([1]; 0.1581 µM) of the same cell line?
**A.** Its relative viability is 0.415.

**Q.** And the relative viability ([1]; 0.5 µM)?
**A.** Its relative viability is 0.403.

**Q.** What about the relative viability ([1]; 1.581 µM) of the same cell line?
**A.** The relative viability was 0.357.

**Q.** And the relative viability ([1]; 5 µM)?
**A.** Its relative viability is 0.32.

**Q.** And the relative viability ([2]; first compound 0.05 µM)?
**A.** Its relative viability is 0.241.

**Q.** And the relative viability ([2]; first compound 0.1581 µM)?
**A.** The relative viability was 0.295.

**Q.** What about the relative viability ([2]; first compound 0.5 µM) of the same cell line?
**A.** The relative viability was 0.303.

**Q.** And the relative viability ([2]; first compound 1.581 µM)?
**A.** Its relative viability is 0.231.

**Q.** And the relative viability ([2]; first compound 5 µM)?
**A.** Its relative viability is 0.322.

**Q.** What about the relative viability ([3]; first compound 0.05 µM) of the same cell line?
**A.** Its relative viability is 0.39.

**Q.** What about the relative viability ([3]; first compound 0.1581 µM) of the same cell line?
**A.** The relative viability was 0.372.

**Q.** And the relative viability ([3]; first compound 0.5 µM)?
**A.** Its relative viability is 0.414.

**Q.** What about the relative viability ([3]; first compound 1.581 µM) of the same cell line?
**A.** The relative viability was 0.347.

**Q.** And the relative viability ([3]; first compound 5 µM)?
**A.** The relative viability was 0.622.

**Q.** What about the relative viability ([4]; first compound 0.05 µM) of the same cell line?
**A.** The relative viability was 0.336.

**Q.** What about the relative viability ([4]; first compound 0.1581 µM) of the same cell line?
**A.** Its relative viability is 0.367.

**Q.** What about the relative viability ([4]; first compound 0.5 µM) of the same cell line?
**A.** The relative viability was 0.332.

**Q.** And the relative viability ([4]; first compound 1.581 µM)?
**A.** Its relative viability is 0.268.

**Q.** And the relative viability ([4]; first compound 5 µM)?
**A.** Its relative viability is 0.293.

**Q.** And the relative viability ([5]; first compound 0.05 µM)?
**A.** The relative viability was 0.32.

**Q.** What about the relative viability ([5]; first compound 0.1581 µM) of the same cell line?
**A.** The relative viability was 0.329.

**Q.** What about the relative viability ([5]; first compound 0.5 µM) of the same cell line?
**A.** The relative viability was 0.323.

**Q.** What about the relative viability ([5]; first compound 1.581 µM) of the same cell line?
**A.** Its relative viability is 0.269.

**Q.** What about the relative viability ([5]; first compound 5 µM) of the same cell line?
**A.** The relative viability was 0.266.

**Q.** And the relative viability ([6]; first compound 0.05 µM)?
**A.** Its relative viability is 0.32.

**Q.** And the relative viability ([6]; first compound 0.1581 µM)?
**A.** The relative viability was 0.364.

**Q.** And the relative viability ([6]; first compound 0.5 µM)?
**A.** Its relative viability is 0.293.

**Q.** And the relative viability ([6]; first compound 1.581 µM)?
**A.** Its relative viability is 0.276.

**Q.** What about the relative viability ([6]; first compound 5 µM) of the same cell line?
**A.** The relative viability was 0.528.

**Q.** And the relative viability ([7]; first compound 0.05 µM)?
**A.** Its relative viability is 0.366.

**Q.** And the relative viability ([7]; first compound 0.1581 µM)?
**A.** The relative viability was 0.337.

**Q.** What about the relative viability ([7]; first compound 0.5 µM) of the same cell line?
**A.** Its relative viability is 0.424.

**Q.** And the relative viability ([7]; first compound 1.581 µM)?
**A.** The relative viability was 0.349.

**Q.** And the relative viability ([7]; first compound 5 µM)?
**A.** Its relative viability is 0.636.

**Q.** Which results are given for SW 900?
**A.** relative viability ([1]; 0.05 µM): 0.147; relative viability ([1]; 0.1581 µM): 0.135; relative viability ([1]; 0.5 µM): 0.0841; relative viability ([1]; 1.581 µM): 0.127; relative viability ([1]; 5 µM): 0.188; relative viability ([8]; first compound 0.05 µM): 0.125; relative viability ([8]; first compound 0.1581 µM): 0.165; relative viability ([8]; first compound 0.5 µM): 0.137; relative viability ([8]; first compound 1.581 µM): 0.142; relative viability ([8]; first compound 5 µM): 0.168; relative viability ([9]; first compound 0.05 µM): 0.171; relative viability ([9]; first compound 0.1581 µM): 0.136; relative viability ([9]; first compound 0.5 µM): 0.134; relative viability ([9]; first compound 1.581 µM): 0.175; relative viability ([9]; first compound 5 µM): 0.197; relative viability ([2]; first compound 0.05 µM): 0.162; relative viability ([2]; first compound 0.1581 µM): 0.144; relative viability ([2]; first compound 0.5 µM): 0.106; relative viability ([2]; first compound 1.581 µM): 0.124; relative viability ([2]; first compound 5 µM): 0.184; relative viability ([3]; first compound 0.05 µM): 0.117; relative viability ([3]; first compound 0.1581 µM): 0.114; relative viability ([3]; first compound 0.5 µM): 0.0636; relative viability ([3]; first compound 1.581 µM): 0.068; relative viability ([3]; first compound 5 µM): 0.15; relative viability ([4]; first compound 0.05 µM): 0.0629; relative viability ([4]; first compound 0.1581 µM): 0.1; relative viability ([4]; first compound 0.5 µM): 0.0605; relative viability ([4]; first compound 1.581 µM): 0.0573; relative viability ([4]; first compound 5 µM): 0.119; relative viability ([5]; first compound 0.05 µM): 0.155; relative viability ([5]; first compound 0.1581 µM): 0.107; relative viability ([5]; first compound 0.5 µM): 0.0961; relative viability ([5]; first compound 1.581 µM): 0.14; relative viability ([5]; first compound 5 µM): 0.178; relative viability ([6]; first compound 0.05 µM): 0.129; relative viability ([6]; first compound 0.1581 µM): 0.134; relative viability ([6]; first compound 0.5 µM): 0.112; relative viability ([6]; first compound 1.581 µM): 0.0964; relative viability ([6]; first compound 5 µM): 0.248; relative viability ([7]; first compound 0.05 µM): 0.0993; relative viability ([7]; first compound 0.1581 µM): 0.114; relative viability ([7]; first compound 0.5 µM): 0.105; relative viability ([7]; first compound 1.581 µM): 0.0942; relative viability ([7]; first compound 5 µM): 0.147; relative viability ([10]; first compound 0.05 µM): 0.188; relative viability ([10]; first compound 0.1581 µM): 0.122; relative viability ([10]; first compound 0.5 µM): 0.0988; relative viability ([10]; first compound 1.581 µM): 0.188; relative viability ([10]; first compound 5 µM): 0.171; relative viability ([11]; first compound 0.05 µM): 0.127; relative viability ([11]; first compound 0.1581 µM): 0.081; relative viability ([11]; first compound 0.5 µM): 0.0901; relative viability ([11]; first compound 1.581 µM): 0.122; relative viability ([11]; first compound 5 µM): 0.196; relative viability ([12]; first compound 0.05 µM): 0.21; relative viability ([12]; first compound 0.1581 µM): 0.231; relative viability ([12]; first compound 0.5 µM): 0.16; relative viability ([12]; first compound 1.581 µM): 0.201; relative viability ([12]; first compound 5 µM): 0.17; relative viability ([13]; first compound 0.05 µM): 0.145; relative viability ([13]; first compound 0.1581 µM): 0.149; relative viability ([13]; first compound 0.5 µM): 0.0776; relative viability ([13]; first compound 1.581 µM): 0.125; relative viability ([13]; first compound 5 µM): 0.183; relative viability ([14]; first compound 0.05 µM): 0.233; relative viability ([14]; first compound 0.1581 µM): 0.116; relative viability ([14]; first compound 0.5 µM): 0.135; relative viability ([14]; first compound 1.581 µM): 0.164; relative viability ([14]; first compound 5 µM): 0.16
